Source: article PMC12281475, “Mediator Kinase Inhibitor Selectivity and Activity in Colorectal Cancer” (ACS Chemical Biology, 2025)

Experiments:
[1] = test system: SW620 cells; assay: Promoter reporter panel (transient luciferase constructs), SW620; type: cell-based, human; conditions: parent SW620, 350 nM, 6 h
Description: Transcription factor activity was assayed in cell lines using 45 different plasmid reporter constructs encoding firefly luciferase under the control of a basal promoter element downstream of specific transcriptional response elements (Qiagen, Germany; Supporting Table S1). Firefly luciferase under the control of basal promoter element alone was used to establish the baseline signal and cotransfection of a construct expressing renilla luciferase from a CMV-promoter was used as a transfection control. Cells were reverse-transfected with reporter plasmids, compounds were added 42 h post transfection and reporter activity quantified following 6 h continuous exposure. […]
multichannel pipette. Where indicated, spheroids were treated at day 4. At days 3, 6 and 8 following compound addition, 50% medium replenishment was performed. Cell-titre Glo analyses were carried out at day 14 for luminescence measurement on a Synergy 2 SL Luminescence microplate reader (BioTek, UK). Values are means ± […]
Single and double knockout clones of human SW620 colon cancer cells lacking CDK8, CDK19 or both kinases were generated using a CRISPR/Cas9 knockout strategy.
Constructs for knockout carried a Cas9 gene, a fluorescent protein gene (GFP for CDK8 and RFP for CDK19) and sgRNAs to human CDK8 […]
Single and double CDK8 and CDK19 knockout clones were generated by transiently transfecting SW620 cells using Lipofectamine 3000 (Thermo Fisher Scientific, UK).
Cells were harvested 72 hours post-transfection and the top 1% GFP, RFP or GFP/RFP positive cells were sorted by FACS into 96 well plates at one cell/well.
Knockout clones were identified by a capillary immunoassay for CDK8 or CDK19 […]
kinase mutant (CDK8D173A)2 were established by transfection of CDK8 CRISPR knockout clone 1 with a pCMV6-CDK8-cMyc-FLAG construct.
Transcription factor promoter reporter assays were carried out to define signalling pathways and biological processes modulated by CDK8/19 ligands. […]
and body weights recorded.

[2] = test system: SW620 cells; assay: Tumour spheroid growth assay (CellTitre-Glo), SW620 parent and knockout clones; type: cell-based, human; conditions: SW620 spheroids
[3] = test system: MED14 phosphorylation in COLO205 cells; assay: CDK-phospho-motif immunoprecipitation and MED14 immunoblot, COLO205; type: cell-based, human; conditions: COLO205, 350 nM, 6 h
From the text: In the absence of phospho-specific antibodies targeting these sites, we employed immunoprecipitation using CDK-phospho-motif antibodies followed by immunoblotting with a MED14 antibody to validate the observed reduction in MED14 phosphorylation. […] In contrast, phosphorylation of MED13 and MED26 was reduced in only 2 of 5 and 5 of 10 CDK-phospho-motif peptides, respectively (Figure E and Supporting Figure S2C). This heterogeneous phosphorylation pattern complicates validation using motif-based immunoprecipitation, as reductions at specific phospho-sites may be obscured by unchanged CDK-motif phosphorylation at other sites. […]
Cell monolayers were washed with PBS twice and lysed using a modified RIPA buffer, mRIPA (50 mM TRIS-HCl pH 7.4, 1% NP-40 substitute, 0.5% NaDOC, 150 mM NaCl, 1 mM EDTA, 0.02% SDS and 1:100 dilution of proteinase and phosphatase inhibitor cocktail, (#5872, Cell Signaling Technology) with overnight freezing at -80 °C and sonication of the cell pellet. Lysates were clarified by centrifugation and supernatants collected and protein concentration determined by a bicinchoninic acid (BCA) assay. […]
= biological repeats; * = phosphorylated residue). (B) STAT1SER727 phosphorylation in COLO205 or SW620 cell lysates detected using two different phospho-STAT1SER727-specific antibodies following treatment with 350 nM CCT251545 for 6 hours. […]

[4] = test system: phospho-STAT1^SER727 in SW620 tumor xenografts; assay: Tumor phospho-STAT1 SER727 relative to total STAT1, electrochemiluminescent ELISA; type: in vivo, mice; conditions: 6 h after final dose
[5] = 14-20 days, 42 mg/kg p.o qd 5/7 days

| Structure (SMILES) | p53 reporter activity [1] | AARE promoter reporter activity relative to vehicle control ([1]; mean ± s.e.m) | AP1 promoter reporter activity relative to vehicle control ([1]; mean ± s.e.m) | spheroid growth of CDK8 and double knockout clones [2] | spheroid growth of CDK19 knockout clones [2] | MED14 phosphorylation (CDK-phospho-motif immunoprecipitation, MED14 immunoblot) [3] | tumor phospho-STAT1 SER727, CDK8/19 clones [4, 5] | tumor phospho-STAT1 SER727, parent, CDK19 and CDK8 clones [4, 5] | tumor phospho-STAT1 SER727 levels, CDK8 and CDK8/19 knockouts ([4]; 3 days, 42 mg/kg p.o. qd, except CDK8-KO-cl2 (p < 0.05)) | tumor phospho-STAT1 SER727 levels, parent and CDK19 clones ([4]; 3 days, 42 mg/kg p.o. qd, p < 0.0001) |
| --- | --- | --- | --- | --- | --- | --- | --- | --- | --- | --- |
| Cn1cc(-c2ccc(-c3cncc(Cl)c3N3CCC4(CCNC4=O)CC3)cc2)cn1 [CCT251545] | significant decrease | 0.82 ± 0.06 | 0.78 ± 0.04 | insensitive to treatment | growth inhibition similar to the parental line | decrease was evident | – | – | – | – |
| Cn1ncc2cc(-c3cnc(N)c(Cl)c3N3CCC4(CCNC4=O)CC3)ccc21 [CCT251921] | – | – | – | – | – | – | not | significantly reduced | no significant change | significantly reduced |
